The values that follow are results of earlier work, collected in patent US20080044468A1, “Processes For The Preparation Of Oral Dosage Formulations Of Modafinil” (priority 2002, published 2008).

The conditions of the data set: background statement.

Turning to `NC(=O)C[S+]([O-])C(c1ccccc1)c1ccccc1` (stereo not shown) [modafinil], the Solubility in water result is recorded as “less than 1 mg/ml”.
